Structures can show the parent of a compound that is named as a salt.

Broadly, the Kd is the free concentration of one partner at which half of the binding sites on the other are occupied at equilibrium, for simple one-to-one binding. A lower Kd goes with tighter binding.

Experiment [1] has as its target T1, proMMP9(20-445;ΔFnII) (SEQ ID NO:6) (Homo sapiens, UniProt P14780, DEL216-390).
T1 construct: start methionine (N); made in house; host or cells: E. coli BL21(DE3) RIL
T1 sequence (P14780 with tags, fused parts or gaps DEL216-390): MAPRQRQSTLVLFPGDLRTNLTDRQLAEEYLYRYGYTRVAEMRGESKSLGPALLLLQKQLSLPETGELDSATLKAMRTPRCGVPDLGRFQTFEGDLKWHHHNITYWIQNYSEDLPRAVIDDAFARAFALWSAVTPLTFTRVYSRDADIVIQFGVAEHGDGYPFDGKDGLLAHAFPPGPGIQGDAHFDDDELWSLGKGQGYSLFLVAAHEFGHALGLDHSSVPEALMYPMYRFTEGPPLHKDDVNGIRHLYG
The experiment is described as follows: ThermoFluor binding assay with proMMP9(20-445;ΔFnII). The method, boiled down:
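Thermal-shift binding using 2.8 μM proMMP9(20-445;ΔFnII) with 50 μM 1,8-ANS in 50 mM HEPES pH 7.0, 100 mM NaCl, 0.001% Tween-20, 2.5 mM MgCl2, 300 μM CaCl2. Compound serially diluted; heated 40–90 °C at 1 °C/min, fluorescence 500 nm. Tm shifts fitted using DSC/ThermoFluor-derived thermodynamic parameters.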
(Differential scanning fluorimetry follows unfolding on heating by fluorescence.)

Experiment [2] has as its target T2, full-length proMMP9(1-707) (SEQ ID NO:1), activation by catalytic MMP3 (Homo sapiens, UniProt P14780, R574P).
T2 construct: made in house; host or cells: HEK293 (proMMP9, secreted); E. coli (MMP3)
The experiment in a line: proMMP9/MMP3 P126 Activation Assay. The experiment is classed as biochemical. As for the experimental part:
proMMP9/MMP3 P126 Activation Assay
The reaction volume was 50 μL. […] Reactivity of residual MMP3 towards P-126 substrate was minimal under these conditions.

Experiment [3] concerns the target T3, proMMP13(1-268) (SEQ ID NO:7) (Homo sapiens, UniProt P45452).
T3 construct: 6xHis (C); made in house; host or cells: HEK293 (transient, secreted)
The experiment in a line: ThermoFluor binding assay with proMMP13(1-268). On the procedure: The ThermoFluor® (TF) assay is a 384-well plate-based binding assay that measures thermal stability of proteins (Biomol Screen 2001, 6, 429-40; Biochemistry 2005, 44, 5258-66). The experiments were carried out using instruments available from Johnson & Johnson Pharmaceutical Research & Development, LLC. TF dye used in all experiments was […] (1,8-ANS) (Invitrogen: A-47).
Compounds were arranged in a pre-dispensed plate (Greiner Bio-one: 781280), wherein compounds were serially diluted in 100% DMSO across 11 columns within a series. Columns 12 and 24 were used as DMSO reference and contained no compound. For multiple compound concentration-response experiments, the compound aliquots ([…]) were robotically predispensed directly into black 384-well polypropylene PCR microplates (Abgene: TF-0384/k) using a Cartesian Hummingbird liquid handler (DigiLab, Holliston, Mass.). Following compound dispense, protein and dye solutions were added to achieve the final assay volume of 3 μL. The assay solutions were overlayed with 1 μL of silicone oil (Fluka, type DC 200: 85411) to prevent evaporation.
Assay plates were robotically loaded onto a thermostatically controlled PCR-type thermal block and then heated from 40 to 90° C. at a ramp-rate of 1° C./min for all experiments. Fluorescence was measured by continuous illumination with UV light (Hamamatsu LC6) supplied via fiber optics and filtered through a band-pass filter (380-400 nm; >60D cutoff). Fluorescence emission of the entire 384-well plate was detected by measuring light intensity using a CCD camera (Sensys, Roper Scientific) filtered to detect 500±25 nm, resulting in simultaneous and independent readings of all 384 wells. A single image with 20-sec exposure time was collected at each temperature, and the sum of the pixel intensity in a given area of the assay plate was recorded vs temperature and fit to standard equations to yield the Tm (J Biomol Screen 2001, 6, 429-40).
Thermodynamic parameters necessary for fitting compound binding for each proMMP were estimated by differential scanning calorimetry (DSC) and from ThermoFluor® data. The heat capacity of unfolding for each protein was estimated from the molecular weight and from ThermoFluor® dosing data.
ThermoFluor® with proMMP13(1-268) (SEQ ID NO: 7)
The proMMP13(1-268) (SEQ ID NO:7) protein sample preparations included a desalting buffer exchange step via a PD-10 gravity column (GE Healthcare). The desalting buffer exchange was performed prior to diluting the protein to the final assay concentration of 3.5 μM. The concentration of proMMP13(1-268) (SEQ ID NO:7) was estimated spectrophotometrically based on a calculated extinction coefficient of ε280=37000 M^−1cm^−1, a calculated molecular weight of 30.8 kDa, and calculated pI of 5.33. ThermoFluor® reference conditions were defined as follows: 100 μg/mL proMMP13(1-268) (SEQ ID NO:7), 25 μM 1,8-ANS, pH 7.0 Buffer (50 mM HEPES pH 7.0, 100 mM NaCl, 0.001% Tween-20, 2.5 mM MgCl2, 300 μM CaCl2). The thermodynamic parameters for proMMP13(1-268) (SEQ ID NO:7) are as follows: Tm (° C.)=67 (+/−0.1), ΔUH(Tm) (cal mol^−1)=107000(+/−5000), ΔUS(Tm) (cal mol^−1 K^−1)=318, ΔUCp (cal mol^−1 K^−1)=2600.

For experiment [4], the target named is T4, proMMP13(1-268) (SEQ ID NO:7), activation by plasmin (Homo sapiens, UniProt P45452).
T4 construct: 6xHis (C); made in house; host or cells: HEK293 (proMMP13, secreted)
The experiment in a line: ProMMP13/Plasmin P126 Activation Assay. The class given is biochemical. As for the experimental part: ProMMP13/Plasmin P126 Activation Assay
On the day of assay, proMMP13(1-268) (SEQ ID NO:7) purified from HEK293 cells and plasmin were diluted to 160 nM and 320 nM, respectively, in assay buffer. The reaction volume was 50 μL. […] The plate was sealed and incubated for 40 min at 37° C. […] Plasmin was not reactive towards P-126 substrate under these conditions.

Experiment [5] has as its target T5, proMMP9(67-444;ΔFnII) (SEQ ID NO:5) (Homo sapiens, UniProt P14780, DEL216-390).
T5 construct: start methionine (N); made in house; host or cells: E. coli BL21(DE3) RIL
T5 sequence (P14780 with tags, fused parts or gaps DEL216-390): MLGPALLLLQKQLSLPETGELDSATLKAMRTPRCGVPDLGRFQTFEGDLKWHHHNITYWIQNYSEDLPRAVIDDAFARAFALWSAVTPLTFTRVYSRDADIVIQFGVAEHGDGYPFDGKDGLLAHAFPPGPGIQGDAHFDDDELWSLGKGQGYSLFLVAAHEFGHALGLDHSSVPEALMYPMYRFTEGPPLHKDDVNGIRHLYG
The experiment in a line: ThermoFluor binding assay with proMMP9(67-444;ΔFnII). An outline of the steps: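 Thermal shift with 3.5 μM desalted proMMP9(67-444;ΔFnII) and 50 μM 1,8-ANS in 50 mM HEPES pH 7.0, 100 mM NaCl, 0.001% Tween-20, 2.5 mM MgCl2, 300 μM CaCl2; compounds serially diluted. Heated 40–90 °C at 1 °C/min, fluorescence at 500 nm; Tm fit, binding modelled using DSC-derived thermodynamic parameters.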

For experiment [6], the target named is T6, full-length proMMP9(1-707) (SEQ ID NO:1) from COS-1 cells, activation by catalytic MMP3 (Homo sapiens, UniProt P14780, R574P).
T6 construct: made in house; host or cells: COS-1 (proMMP9, secreted); E. coli (MMP3)
The experiment in a line: ProMMP9/MMP3 DQ Gelatin Activation Assay. To be noted: read-out: ProMMP9/MMP3 DQ gel Activation Assay, IC50. The class given is biochemical. The text has this: ProMMP9/MMP3 DQ Gelatin Activation Assay

T2 sequence (P14780 20-707 R574P): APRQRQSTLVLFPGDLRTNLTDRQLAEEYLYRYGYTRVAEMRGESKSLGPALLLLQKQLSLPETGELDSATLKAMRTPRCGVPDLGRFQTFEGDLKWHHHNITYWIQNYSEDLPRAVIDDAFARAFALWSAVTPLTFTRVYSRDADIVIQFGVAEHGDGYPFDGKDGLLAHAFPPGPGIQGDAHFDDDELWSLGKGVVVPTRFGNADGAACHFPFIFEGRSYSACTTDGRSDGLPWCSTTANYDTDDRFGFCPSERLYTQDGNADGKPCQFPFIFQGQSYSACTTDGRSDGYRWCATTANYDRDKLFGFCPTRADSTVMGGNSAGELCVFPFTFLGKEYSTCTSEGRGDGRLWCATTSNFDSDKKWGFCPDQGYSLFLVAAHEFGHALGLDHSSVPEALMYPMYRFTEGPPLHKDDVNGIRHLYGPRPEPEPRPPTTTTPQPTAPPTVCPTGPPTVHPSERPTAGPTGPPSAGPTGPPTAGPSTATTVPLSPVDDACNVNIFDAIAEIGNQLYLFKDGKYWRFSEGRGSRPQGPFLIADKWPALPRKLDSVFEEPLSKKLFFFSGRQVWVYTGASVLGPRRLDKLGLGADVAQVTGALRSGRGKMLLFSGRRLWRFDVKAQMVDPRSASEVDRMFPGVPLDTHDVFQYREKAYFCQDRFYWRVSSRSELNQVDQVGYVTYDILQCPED
T6 sequence (P14780 20-707 R574P): as above

In the case of `CC(C)Oc1ccc(C(N)=O)cc1Nc1nc(-c2ccc(N3CCN(C)CC3)nc2)cs1` [Example 27, 4-Isopropoxy-3-{4-[6-(4-methyl-piperazin-1-yl)-pyridin-3-yl]-thiazol-2-ylamino}-benzamide.TFA], the Kd amounted to 0.039 µM in experiment [1], 0.28 µM in experiment [3] and 0.38 µM in experiment [5]. Also, the values for the IC50 in experiment [2] and in experiment [4] were 0.15 µM and 0.9 µM, respectively.

For `COc1ccc([N+](=O)[O-])cc1Nc1nc(-c2cccnc2)cs1` [Example 60, (2-Methoxy-5-nitro-phenyl)-(4-pyridin-3-yl-thiazol-2-yl)-amine], the Kd in experiment [1] was above 95 µM; in experiment [3], 78 µM; in experiment [5] it was above 95 µM. For the same compound, the IC50 in experiment [6] is 5.5 µM.

As for `CCOc1ccc(-c2ncco2)cc1Nc1nc(-c2cccnc2)cs1` [Example 18, (2-Ethoxy-5-oxazol-2-yl-phenyl)-(4-pyridin-3-yl-thiazol-2-yl)-amine.HBr], the Kd was found to be 26 µM in experiment [1], 3.3 µM in experiment [3] and 0.66 µM in experiment [5]. Also, the IC50 in experiment [2] worked out at 0.67 µM.

On to `CC(C)Oc1ccc(C(N)=O)cc1Nc1nc(-c2ccc(Cl)nc2)cs1` [Example 26, 3-[4-(6-Chloro-pyridin-3-yl)-thiazol-2-ylamino]-4-isopropoxy-benzamide.TFA], for which the results for the Kd in experiment [1], in experiment [3] and in experiment [5] were 0.32 µM, 0.25 µM and 3.3 µM, respectively. The IC50 in experiment [2] was determined as 0.68 µM.

With `COc1ccc(C(N)=O)cc1Nc1nc(-c2cccnc2)cs1` [Example 4, 4-Methoxy-3-(4-pyridin-3-yl-thiazol-2-ylamino)-benzamide.HBr], the figures for the equilibrium dissociation constant (Kd) in experiment [1], in experiment [3] and in experiment [5] were 1.3 µM, 12 µM and 3.3 µM, respectively. Further, the IC50 in experiment [2] was 5 µM.

For `CC(C)Oc1ccc(C(N)=O)cc1Nc1nc(-c2cnccc2C(C)C)cs1` [Example 23, 4-Isopropoxy-3-[4-(4-isopropyl-pyridin-3-yl)-thiazol-2-ylamino]-benzamide.TFA], the Kd in experiment [1] was determined as 11 µM; in experiment [3] it was 12 µM; in experiment [5], 18 µM. The same compound showed an IC50 in experiment [2] of around 14 µM.
